From PMC12203311, “Design, synthesis, in silico and in vitro evaluation of pyrrole–indole hybrids as dual tubulin and aromatase inhibitors with potent anticancer activities” (RSC Advances, 2025)

What was measured:
UACC-257 = assay: NCI60 five-dose screen; format: cell-based; conditions: Homo sapiens, UACC-257, melanoma; for CC50: read-out: LC50 (the source's name)
SNB-19 = assay: NCI60 five-dose screen; format: cell-based; conditions: Homo sapiens, SNB-19, CNS cancer; for CC50: read-out: LC50 (the source's name)
M14 = assay: NCI60 five-dose screen; format: cell-based; conditions: Homo sapiens, M14, melanoma; for CC50: read-out: LC50 (the source's name)
CAKI-1 = assay: NCI60 five-dose screen; format: cell-based; conditions: Homo sapiens, CAKI-1, renal cancer; for CC50: read-out: LC50 (the source's name)
HOP-62 = assay: NCI60 five-dose screen; format: cell-based; conditions: Homo sapiens, HOP-62, NSC lung cancer; for CC50: read-out: LC50 (the source's name)
NCI-H522 = assay: NCI60 five-dose screen; format: cell-based; conditions: Homo sapiens, NCI-H522, NSC lung cancer; for CC50: read-out: LC50 (the source's name)
NCI-H226 = assay: NCI60 five-dose screen; format: cell-based; conditions: Homo sapiens, NCI-H226, NSC lung cancer; for CC50: read-out: LC50 (the source's name)
BT-549 = assay: NCI60 five-dose screen; format: cell-based; conditions: Homo sapiens, BT-549, breast cancer; for CC50: read-out: LC50 (the source's name)
OVCAR-8 = assay: NCI60 five-dose screen; format: cell-based; conditions: Homo sapiens, OVCAR-8, ovarian cancer; for CC50: read-out: LC50 (the source's name)
HCT-15 = assay: NCI60 five-dose screen; format: cell-based; conditions: Homo sapiens, HCT-15, colon cancer; for CC50: read-out: LC50 (the source's name)
NCI-H322M = assay: NCI60 five-dose screen; format: cell-based; conditions: Homo sapiens, NSC lung cancer; for CC50: read-out: LC50 (the source's name)
LOX IMVI = assay: NCI60 five-dose screen; format: cell-based; conditions: Homo sapiens, melanoma; for CC50: read-out: LC50 (the source's name)
HOP-92 = assay: NCI60 five-dose screen; format: cell-based; conditions: Homo sapiens, HOP-92, NSC lung cancer; for CC50: read-out: LC50 (the source's name)
[1] = Cytotoxicity MTT assay, L929; format: cell-based, mouse; conditions: mouse, L929 fibroblast cells; MTT, 48 hours
Summary of the method: (§1)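 10 000 cells/well, overnight attachment; compound 48 h in DMEM/10% FBS, 37 °C, 5% CO2. MTT 0.5 mg mL^−1, 3 h; formazan in DMSO; A570. % viability vs DMSO vehicle.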

[2] = system: L929 normal mouse fibroblast cell line; assay: Cytotoxicity MTT assay, L929; format: cell-based; conditions: IC50 (L929)/IC50 (T47D)
Summary of the method: as §1

NCI/ADR-RES = assay: NCI60 five-dose screen; format: cell-based, human; conditions: Homo sapiens, ovarian cancer; for CC50: read-out: LC50 (the source's name)
MOLT-4 = assay: NCI60 five-dose screen; format: cell-based; conditions: Homo sapiens, MOLT-4, leukemia; for CC50: read-out: LC50 (the source's name)
EKVX = assay: NCI60 five-dose screen; format: cell-based; conditions: Homo sapiens, NSC lung cancer; for CC50: read-out: LC50 (the source's name)
NCI-H460 = assay: NCI60 five-dose screen; format: cell-based; conditions: Homo sapiens, NCI-H460, NSC lung cancer; for CC50: read-out: LC50 (the source's name)
Human CYP19 (aromatase) = target: T1, Human CYP19 (aromatase) (Homo sapiens, UniProt P11511); assay: Aromatase inhibition assay (DBF fluorometric substrate); format: biochemical; conditions: active defined as IC50 < 12.5 µM
T1 construct: purchased GENTEST, Woburn, MA 456260; host or cells: baculovirus/insect cells
T1 sequence (P11511 1-503): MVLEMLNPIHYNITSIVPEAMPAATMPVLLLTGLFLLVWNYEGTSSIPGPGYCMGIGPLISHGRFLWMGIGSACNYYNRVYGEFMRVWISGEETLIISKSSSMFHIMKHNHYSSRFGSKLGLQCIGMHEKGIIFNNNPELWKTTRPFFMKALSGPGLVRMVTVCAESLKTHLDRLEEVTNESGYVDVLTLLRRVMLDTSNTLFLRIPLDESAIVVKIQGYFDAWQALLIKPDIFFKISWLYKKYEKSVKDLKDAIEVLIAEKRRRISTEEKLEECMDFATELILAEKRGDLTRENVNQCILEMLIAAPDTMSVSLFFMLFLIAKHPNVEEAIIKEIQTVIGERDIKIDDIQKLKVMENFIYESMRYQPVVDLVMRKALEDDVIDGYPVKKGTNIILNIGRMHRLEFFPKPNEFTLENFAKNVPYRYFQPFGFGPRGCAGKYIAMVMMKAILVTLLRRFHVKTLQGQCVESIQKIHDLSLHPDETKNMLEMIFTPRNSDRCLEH
Summary of the method: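 Insect-cell-expressed human CYP19 Supersomes with oxidoreductase turned over DBF for 30 min at 37 °C after a 10 min 37 °C pre-incubation with cofactor. NaOH quench; product measured by fluorescence, excitation 490 nm, emission 530 nm.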

HT29 = assay: NCI60 five-dose screen; format: cell-based; conditions: Homo sapiens, HT-29, HT29, colon cancer; for CC50: read-out: LC50 (the source's name)
786-0 = assay: NCI60 five-dose screen; format: cell-based; conditions: Homo sapiens, 786-0, renal cancer; for CC50: read-out: LC50 (the source's name)

## CCc1ccc(/C=N/NC(=O)c2[nH]c3ccc(Br)cc3c2-c2ccccc2)[nH]1 [Derivative 3s, (E)-5-Bromo-N′-((5-ethyl-1H-pyrrol-2-yl)methylene)-3-phenyl-1H-indole-2-carbohydrazide]
UACC-257
  GI50: 1.32 µM
  CC50: 64.7 µM
SNB-19
  GI50: 1.82 µM
  CC50: 51.8 µM
M14
  GI50: 0.318 µM
  CC50: 38.7 µM
CAKI-1
  GI50: 1.04 µM
  CC50: 56.2 µM
HOP-62
  GI50: 0.861 µM
  CC50: 46.2 µM
NCI-H522
  GI50: 0.183 µM
  CC50: 28 µM
NCI-H226
  GI50: 0.506 µM
  CC50: 32.3 µM
BT-549
  GI50: 0.979 µM
  CC50: 30.3 µM
OVCAR-8
  GI50: 0.337 µM
  CC50: 25.2 µM
HCT-15
  GI50: 0.349 µM
  CC50: 37.4 µM
NCI-H322M
  GI50: 1.73 µM
  CC50: 64.6 µM
LOX IMVI
  GI50: 0.722 µM
  CC50: 36.1 µM
HOP-92
  GI50: 2.01 µM
  CC50: 40.1 µM
[1]
  IC50 at 48 h: 19.5 ± 11.8 µM
[2]
  Selectivity index (SI): 5.13
NCI/ADR-RES
  GI50: 0.253 µM
  CC50: 30.2 µM
MOLT-4
  GI50: 0.464 µM
  CC50: > 100 µM
EKVX
  GI50: 0.453 µM
  CC50: 43 µM
NCI-H460
  GI50: 0.396 µM
  CC50: 43.5 µM
Human CYP19 (aromatase)
  IC50: 4.6 ± 0.5 µM
HT29
  GI50: 0.298 µM
  CC50: 33.8 µM
786-0
  GI50: 0.801 µM
  CC50: 47.4 µM

## CCc1c[nH]c(/C=N/NC(=O)c2[nH]c3ccc(Br)cc3c2-c2ccccc2)c1 [Derivative 3t, (E)-5-Bromo-N′-((4-ethyl-1H-pyrrol-2-yl)methylene)-3-phenyl-1H-indole-2-carbohydrazide]
UACC-257
  GI50: 1.23 µM
  CC50: 41.3 µM
SNB-19
  GI50: 0.396 µM
  CC50: 41.3 µM
M14
  GI50: 0.337 µM
  CC50: 38.4 µM
CAKI-1
  GI50: 1.05 µM
  CC50: 34.4 µM
HOP-62
  GI50: 1.35 µM
  CC50: 37.5 µM
NCI-H522
  GI50: 0.206 µM
  CC50: 29.5 µM
NCI-H226
  GI50: 0.33 µM
  CC50: 28 µM
BT-549
  GI50: 0.39 µM
  CC50: 23.9 µM
OVCAR-8
  GI50: 0.316 µM
  CC50: 26 µM
HCT-15
  GI50: 0.319 µM
  CC50: 35.6 µM
NCI-H322M
  GI50: 2.31 µM
  CC50: 49.8 µM
LOX IMVI
  GI50: 0.427 µM
  CC50: 8.27 µM
HOP-92
  GI50: 2.57 µM
  CC50: 33 µM
[1]
  IC50 at 48 h: 7.1 ± 3.6 µM
[2]
  Selectivity index (SI): 1.54
NCI/ADR-RES
  GI50: 0.247 µM
  CC50: 22 µM
MOLT-4
  GI50: 0.399 µM
  CC50: 94.2 µM
EKVX
  GI50: 0.448 µM
  CC50: 35.6 µM
NCI-H460
  GI50: 0.346 µM
  CC50: 20.2 µM
Human CYP19 (aromatase)
  IC50: 4.7 ± 0.5 µM
HT29
  GI50: 0.308 µM
  CC50: 21 µM
786-0
  GI50: 0.646 µM
  CC50: 38.5 µM

## CCc1cc[nH]c1/C=N/NC(=O)c1[nH]c2ccc(Br)cc2c1-c1ccccc1 [Derivative 3u, (E)-5-Bromo-N′-((3-ethyl-1H-pyrrol-2-yl)methylene)-3-phenyl-1H-indole-2-carbohydrazide]
UACC-257
  GI50: 3.78 µM
  CC50: 40.8 µM
SNB-19
  GI50: 4.5 µM
  CC50: 42.2 µM
M14
  GI50: 1.62 µM
  CC50: 23.7 µM
CAKI-1
  GI50: 6.04 µM
  CC50: 45.3 µM
HOP-62
  GI50: 3.77 µM
  CC50: 45.8 µM
NCI-H522
  GI50: 2.3 µM
  CC50: 34.1 µM
NCI-H226
  GI50: 1.97 µM
  CC50: 37.7 µM
BT-549
  GI50: 2.7 µM
  CC50: 34.2 µM
OVCAR-8
  GI50: 3.02 µM
  CC50: 39.8 µM
HCT-15
  GI50: 1.03 µM
  CC50: 38.8 µM
NCI-H322M
  GI50: 3.93 µM
  CC50: 43.4 µM
LOX IMVI
  GI50: 2.42 µM
  CC50: 32.3 µM
HOP-92
  GI50: 3.8 µM
  CC50: 44.3 µM
[1]
  IC50 at 48 h: 12.2 ± 0.7 µM
[2]
  Selectivity index (SI): 1.97
NCI/ADR-RES
  GI50: 2.68 µM
  CC50: 34.6 µM
MOLT-4
  GI50: 2.37 µM
  CC50: 55.1 µM
EKVX
  GI50: 2.79 µM
  CC50: 37.7 µM
NCI-H460
  GI50: 1.23 µM
  CC50: 36.7 µM
Human CYP19 (aromatase)
  IC50: 9.6 ± 1 µM
HT29
  GI50: 2.17 µM
  CC50: 39.3 µM
786-0
  GI50: 3.51 µM
  CC50: 44.3 µM
